Results on two molecules are retold here after patent US20190300911A1, “METHODS FOR INCREASING THE FREQUENCY OF GENE TARGETING BY CHROMATIN MODIFICATION” (FRIEDRICH MIESCHER INSTITUTE FOR BIOMEDICAL RESEARCH, priority 2016, published 2019).

The target of assay [1] is T1, proteasome (Saccharomyces cerevisiae, UniProt P23724+P30656).
T1 construct: endogenous in cells; host or cells: Saccharomyces cerevisiae (budding yeast) cells treated with Zeocin
The assay is described as follows: Suppression of damage-induced histone degradation by proteasome inhibition. The assay is classed as cell-based. The settings on record: Zeocin-damaged cells.

Assay [2] concerns Histone H3 (H3-CFP). Description: Time-lapse live cell tracking of H3-CFP in microfluidic chambers. The assay is classed as cell-based, Saccharomyces cerevisiae. The procedure: For H3-CFP (Strain GA-3364 and derivatives) and 2-foci (Strain GA-9777) live cell fluorescent microscopy, LOG phase cells were trapped with 3 pulses of 5 psi pressure in CellASIC plates of the ONIX microfluidic perfusion system (Merck Millipore). All perfusions were done at a continuous flow rate of 2 psi pressure. After a 20-30 minute recovery phase, cells were treated for 30 minutes with the indicated amount of Zeocin prior to high-speed CFP-RFP tracking microscopy. The recovery phase of H3-CFP tagged cells was 20 minutes after which they were treated with a pulse of Zeocin for 1 hour and H3-CFP fluorescence was followed for additional 40 minutes after treatment.
Live microscopy was done on a temperature controllable Olympus IX81 microscope with a Yokogawa CSU-X1 scanning head equipped with two EM-CCD EvolveDelta (Photometrics) cameras, an ASI MS-2000 Z-piezo stage and a PlanApo x100, NA 1.45 total internal reflection fluorescence microscope oil objective and Visiview software. For mRFP-GFP or mRFP-CFP high-speed tracking, fluorophores were excited with lasers at 561 nm (mCherry or mRFP) and 491 nm (GFP) or 440 nm (CFP) and emitted fluorescence was acquired simultaneously on separate cameras (Semrock FF01-617/73-25 filter for mCherry/mRFP and Semrock FF02-525/40-25 filter for GFP or Semrock FF01-475/42-25 for CFP). High-speed time-lapse series were conducted taking 8 optical slices per stack either every 80 ms for 1 min or 300 ms for 2 min, with 10 ms exposure times per slice respectively. Time-lapse image stacks were analyzed as in Dion et al. 9, using a custom made ImageJ (FIJI) plug-in36 to extract coordinates of locus position from the movies. Phototoxicity was tested by exposing wild-type cells (GA-6879) to standard imaging conditions and following outgrowth for 5 h by morphological analysis, comparing them with unexposed cells. […] Boxplot graphs were generated by plotting all measured distances of treated or untreated cells. […] For each frame, the distance vector of tracks in two channels was measured by selecting the two spots with minimal distance. […]

Assay [3] concerns S phase chromatin. The assay is described as follows: Super-resolution microscopy of TetR-mCherry tagged locus 3D volume (chromatin expansion). The assay is classed as cell-based, Saccharomyces cerevisiae. The settings on record: cells fixed 30 min after exposure to different amounts of Zeocin. An excerpt:
Structured illumination images were acquired on a Zeiss Elyra S.1 microscope with a Andor iXon 885 EMCCD camera using a HR diode 488 […] solid state laser, BP 525-580+LP 750 filter and a PLAN-APOCHROMAT 63×N.A. 1.4 oil DIC objective lens. Cells were first fixed in PFA 4%, washed 3 times in PBS and then attached to a thin SIM grade Zeiss 1.5 glass coverslip using Concanavalin A. Cells were fully sectioned by 50-65 slices with […] intervals taken at 60 ms exposures per slice using 5 rotations of the illumination grid. Brightfield images of the cells were also acquired using an X-Cite PC 120 EXFO Metal Halide lamp. Zen Black was used to process the images using automatic settings with the Raw Scale option selected. 3D stacks were then analyzed by using pixel classification and a custom Matlab script to determine the spot volumes and other features as follows. […] Features calculated at the labeled pixels and their local neighborhood are then used to train a pixel classifier based on a Random Forest ensemble learning method. […] Finally, the program generates an ascii file where the key features like volume and solidity 3D and descriptive statistics are listed for all detected nuclei and foci. The solidity factor is calculated as the proportion of pixels in the 3D convex hull. […]

In assay [4] the test system is chromatin fiber. The assay is described as follows: 3D distance between two differentially labeled genomic loci (chromatin flexibility). It is filed as cell-based, Saccharomyces cerevisiae. The settings on record: for average inter-spot distance between lacI-GFP and TetR-mRFP tagged loci after DNA damage: loci 320 kbp apart on Chr XIV. An excerpt:
Live microscopy was done on a temperature controllable Olympus IX81 microscope with a Yokogawa CSU-X1 scanning head equipped with two EM-CCD EvolveDelta (Photometrics) cameras, an ASI MS-2000 Z-piezo stage and a PlanApo x100, NA 1.45 total internal reflection fluorescence microscope oil objective and Visiview software. For mRFP-GFP or mRFP-CFP high-speed tracking, fluorophores were excited with lasers at 561 nm (mCherry or mRFP) and 491 nm (GFP) or 440 nm (CFP) and emitted fluorescence was acquired simultaneously on separate cameras (Semrock FF01-617/73-25 filter for mCherry/mRFP and Semrock FF02-525/40-25 filter for GFP or Semrock FF01-475/42-25 for CFP). High-speed time-lapse series were conducted taking 8 optical slices per stack either every 80 ms for 1 min or 300 ms for 2 min, with 10 ms exposure times per slice respectively. Time-lapse image stacks were analyzed as in Dion et al. 9, using a custom made ImageJ (FIJI) plug-in36 to extract coordinates of locus position from the movies. Phototoxicity was tested by exposing wild-type cells (GA-6879) to standard imaging conditions and following outgrowth for 5 h by morphological analysis, comparing them with unexposed cells. Time-series acquired from Strains GA-9227 and GA-9777 (Two-spot data) were deconvolved using Huygens Remote Manager, channel-aligned and cropped to contain one single cell/nucleus with the two respective fluorescent spots. Spot tracking over time was done with the ImageJ plugin TrackMate included in Fiji37. Boxplot graphs were generated by plotting all measured distances of treated or untreated cells. Relative MSD analysis was performed with KNIME38. For each frame, the distance vector of tracks in two channels was measured by selecting the two spots with minimal distance. The inventors performed an MSD analysis on the distance vectors for all frames and tracks with a maximum MSD(t) value bigger than 10 μm^2 were considered as outliers (due to mis-matching two distant tracks) and removed from the analysis. Relative MSD vs. t was averaged over all tracks and plotted using R.

In assay [5] the test system is core histones H2A, H2B, H3 and H4. Description: Quantitative SILAC mass spectrometry of histone abundance before and after Zeocin. The assay is classed as cell-based, Saccharomyces cerevisiae. The settings on record: acute treatment (1 hour) with Zeocin. The method, then:
For SILAC based mass spectrometry, lysine and arginine double labeling of the lys2A arg4A strain yAG-06A was achieved by growth for at least ten generations in “heavy” medium as described previously in Gruhler et al. 34. After growth to LOG phase or at G1 cell cycle arrest, “light” labeled cells (or “heavy” labeled cells for label-swap controls) were treated for 1 h with Zeocin and mixed 1:1 based on exact cell count with “heavy” labeled (“light” for label-swap control), non-treated control cells. Prior to mixing, FACS and Western blot samples were taken to test for cell cycle distribution and DDC activation.
Chromatin fractionation was performed as previously described with the modification that chromatin obtained from SILAC labeled yeast samples was resuspended in Urea Buffer (50 mM TRIS pH 7.5, 6 M Urea, 1% SDS, 5 mM EDTA) sonicated for optimal solubilizing of proteins followed by a TCA protein precipitation step prior to downstream mass spectrometric analysis. To avoid carbamylation in urea buffer, samples were kept below 20° C. and quickly processed. Control samples from whole cell extract (WCE), supernatant (SUP) and chromatin fraction (CHR) were analyzed with SDS-PAGE (Novex 8-16% Tris-Glycine Gel, Invitrogen) gel electrophoresis followed by Coomassie staining. […]

Assay [6] has as its system histone H3/H4. The assay is described as follows: Quantitative immunoblot analysis of histone H3/H4 loss and DDC activation. It is filed as cell-based, Saccharomyces cerevisiae. The method, then: The total protein content in the relevant samples was determined with the Quant-iT protein assay kit (Thermo Scientific) and 8.75 μg of total protein was loaded and run on Criterion TGX Stain-Free 8-16% (Biorad) gels under SDS denaturing electrophoresis conditions. Rapid fluorescent detection of all proteins in the gel or on the membrane was done according to the manufacturer's specifications and protein transfer on PVDF membranes was performed using the Trans-Blot Turbo system. Rad53 protein was detected using a custom-made mouse monoclonal antibody (GenScript) against FHA2 domain of Rad53. Anti-yH2A was similarly a custom-made polyclonal antibody, that is specific for phospho-S129 in yeast H2A.
In general terms: A western blot detects proteins with antibodies after separation by electrophoresis.

In assay [7] the test system is nucleosome occupancy. Description: Genome-wide nucleosome mapping (MNase-seq with Candida glabrata spike-in). It is filed as cell-based, Saccharomyces cerevisiae. The settings on record: Zeocin 500 μg/ml for 1 hour; reads normalized to C. glabrata. The method, then: Strains tested for changes in nucleosome occupancy (GA-6879 and GA-8386) were grown in appropriate media to OD600=0.8. Cultures were split into two and one of them was treated with Zeocin (500 μg/ml) for 1 hour. At this point the OD600 absorbance of each sample was measured and Candida glabrata cells were spiked in to 1/10 according to the sample OD600. Cells were washed three times with ice cold TBS (20 MM Tris.HCl pH8.0 and 150 mM NaCl) and lysed by beat beating in MNase digestion buffer (10 mM Tris pH 8.0, 50 mM NaCl, 5 mM MgCl2, 1 mM CaCl2), 1 mM beta-mercaptoethanol, 0.5 mM spermidine, 0.075% NP40). The obtained chromatin samples were MNase digested to isolate mono-nucleosomes and sequencing libraries were prepared according to the method described in Wiechens, N. et al. (Wiechens et al. 2016). Paired end libraries of MNase digested chromatin were sequenced using Illumina HiSeq technology. Fastq files containing raw reads were aligned to the S. cerevisiae and C. glabrata reference genomes by Bowtie2 with option of maximum fragment length 500 for nucleosome fragments. The nucleosome dyads at each position were calculated in a defined window flanking the transcription start site (TSS). […] The reads were further normalized by dividing the fraction of C. glabrata reads in the sample. […]

Where a SMILES comes first, the peptide text is derived from it. The star is where a group is joined. Cbz = O=C(OCc1ccccc1)*

Turning to `CC(C)C[C@@H](C=O)NC(=O)[C@H](CC(C)C)NC(=O)[C@H](CC(C)C)NC(=O)OCc1ccccc1` [MG132] (Cbz-Leu-Leu-Leu-aldehyde), the “effect on DNA damage-induced H3 or H4 degradation” value in assay [1] was “suppressed”.
With Zeocin, in assay [2] (H3-CFP fluorescence), the “time of Zeocin exposure within which histone H3 degradation occurred” value is no more than 30 min. Further, the “Histone H3 degradation compared to undamaged cells” value in assay [2] (H3-CFP fluorescence, within 30 minutes of Zeocin exposure) is roughly 30%. Moreover, the “DSBs per genome generated” value in assay [2] (pulse-treated for 1 h with Zeocin) was 4-7 DSBs per genome. Moreover, in assay [3], the “decompaction of S phase chromatin (3D TetR-mCherry foci volumes)” value was “dose-dependent decompaction”. Besides, the “average inter-spot distance between lacI-GFP and TetR-mRFP tagged loci after DNA damage” value in assay [4] (G1 cells, printed 0.97-1.2 (before-after)) worked out at 1.2 μm. Also, in assay [4] (S-phase cells, printed 0.99-1.12 (before-after)), the “average inter-spot distance between lacI-GFP and TetR-mRFP tagged loci after DNA damage” value is on record as 1.12 μm. Besides, the “inter-spot dynamics and distances between CFP-lacI and TetR-mRFP tagged foci” value in assay [4] (loci 50 kbp apart on Chr III, real time) is recorded as “robust increase”. Also, in assay [5], the “levels of the histone variant Htz1 (H2A.Z)” value is listed as “remained stable”; the “loss of all core histones H2A, H2B, H3 and H4 (ratios of non-modified histone peptides, damage over control L/H)” value was 20-40%. Further, the “histone depletion in histone-shutdown strain with constitutive H3/H4 expression” value in assay [6] (growth in media with low level galactose, compared with cells with endogenous histone genes) was “same depletion effect”. In assay [6] (quantitative immunoblot), the “DDC activation (yH2A signal)” value was “robust DDC activation”; the “relationship between histone H3/H4 loss and Zeocin treatment” value is given as “dose-dependent relationship”. Besides, the “nucleosome occupancy within promoters and across coding regions” value in assay [7] is “drop in nucleosome occupancy”.
